Experimental data from ChEMBL document CHEMBL4118132, “Novel 5-methyl-2-phenylphenanthridium derivatives as FtsZ-targeting antibacterial agents from structural simplification of natural product sanguinarine” (2018).
Converted amounts (≈) assume the structure as drawn.

Experiments:
Format in all cases: functional
[1] = tested on: Staphylococcus aureus; experiment: Antibacterial activity against penicillin-susceptible Staphylococcus aureus ATCC 25923 after 24 hrs by broth microdilution method; conditions: ATCC 25923, 24 h
[2] = tested on: Bacillus pumilus; experiment: Antibacterial activity against penicillin-susceptible Bacillus pumilus ATCC 63202 after 24 hrs by broth microdilution method; conditions: ATCC 63202, 24 h
[3] = tested on: Staphylococcus aureus; experiment: Antibacterial activity against methicillin-resistant Staphylococcus aureus ATCC 43300 after 24 hrs by broth microdilution method; conditions: ATCC 43300, 24 h
[4] = tested on: Pseudomonas aeruginosa; experiment: Antibacterial activity against penicillin-susceptible Pseudomonas aeruginosa ATCC 27853 after 24 hrs by broth microdilution method; conditions: ATCC 27853, 24 h
[5] = tested on: Streptococcus pyogenes; experiment: Antibacterial activity against penicillin-resistant Streptococcus pyogenes after 24 hrs by broth microdilution method
[6] = tested on: Staphylococcus epidermidis; experiment: Antibacterial activity against penicillin-resistant Staphylococcus epidermidis clinical isolate after 24 hrs by broth microdilution method
[7] = tested on: Escherichia coli; experiment: Antibacterial activity against penicillin-susceptible Escherichia coli ATCC 25922 after 24 hrs by broth microdilution method; conditions: ATCC 25922, 24 h
[8] = tested on: Staphylococcus aureus; experiment: Antibacterial activity against penicillin-resistant Staphylococcus aureus clinical isolate after 24 hrs by broth microdilution method
[9] = tested on: Streptococcus pyogenes; experiment: Antibacterial activity against penicillin-susceptible Streptococcus pyogenes after 24 hrs by broth microdilution method
[10] = tested on: Bacillus subtilis; experiment: Antibacterial activity against penicillin-susceptible Bacillus subtilis ATCC 9372 after 24 hrs by broth microdilution method; conditions: ATCC 9372, 24 h
[11] = tested on: Staphylococcus aureus; experiment: Bactericidal activity against penicillin-susceptible Staphylococcus aureus ATCC 25923 after 24 hrs by flat colony counting method; conditions: ATCC 25923, 24 h

Row | Structure (SMILES) | MIC [1] | MIC [2] | MIC [3] | MIC [4] | MIC [5] | MIC [6] | MIC [7] | MIC [8] | MIC [9] | MIC [10] | MBC [11]
1 | Cc1onc(-c2ccccc2)c1C(=O)N[C@@H]1C(=O)N2[C@@H]1SC(C)(C)[C@@H]2C(=O)[O-].[Na+] | 4 µg/mL | 32 µg/mL | > 64 µg/mL | > 64 µg/mL | > 64 µg/mL | > 64 µg/mL | > 64 µg/mL | > 64 µg/mL | 1 µg/mL | 4 µg/mL | 
2 | COc1ccc(-c2ccc3c(c2)c2ccccc2c[n+]3C)cc1.[Cl-] | 4 µg/mL | 16 µg/mL | 64 µg/mL | > 64 µg/mL | 16 µg/mL | 64 µg/mL | > 64 µg/mL | 64 µg/mL | 4 µg/mL | 4 µg/mL | > 64 µg/mL
3 | Cc1ccc(-c2ccc3c(c2)c2ccccc2c[n+]3C)cc1.[Cl-] | 8 µg/mL | 8 µg/mL | 16 µg/mL | > 64 µg/mL | 16 µg/mL | 32 µg/mL | > 64 µg/mL | 16 µg/mL | 4 µg/mL | 2 µg/mL | > 64 µg/mL
4 | C[n+]1cc2ccccc2c2cc(-c3ccccc3)ccc21.[Cl-] | 32 µg/mL | 16 µg/mL | 16 µg/mL | > 64 µg/mL | 16 µg/mL | 16 µg/mL | > 64 µg/mL | 64 µg/mL | 4 µg/mL | 4 µg/mL | > 64 µg/mL
5 | C[n+]1cc2ccccc2c2cc(-c3ccccc3C(F)(F)F)ccc21.[Cl-] | 16 µg/mL | 32 µg/mL | 32 µg/mL | > 64 µg/mL | 32 µg/mL | 32 µg/mL | > 64 µg/mL | 32 µg/mL | 64 µg/mL | 32 µg/mL | > 64 µg/mL
6 | COc1cc(-c2ccccc2C(F)(F)F)cc2c3ccccc3c[n+](C)c12.[Cl-] | 8 µg/mL | 16 µg/mL | 16 µg/mL | > 64 µg/mL | 16 µg/mL | 16 µg/mL | > 64 µg/mL | 16 µg/mL | 16 µg/mL | 16 µg/mL | > 64 µg/mL
7 | C[n+]1cc2ccccc2c2cc(-c3ccc(-c4ccccc4)cc3)ccc21.[Cl-] | 8 µg/mL | 16 µg/mL | 64 µg/mL | > 64 µg/mL | 64 µg/mL | > 64 µg/mL | > 64 µg/mL | 8 µg/mL | 2 µg/mL | 8 µg/mL | > 64 µg/mL
8 | COc1cc(-c2ccccc2)cc2c3ccccc3c[n+](C)c12.[Cl-] | 16 µg/mL | 4 µg/mL | 8 µg/mL | > 64 µg/mL | 8 µg/mL | 4 µg/mL | > 64 µg/mL | 64 µg/mL | 2 µg/mL | 1 µg/mL | > 64 µg/mL
9 | COc1cc(-c2ccc(OC(F)(F)F)cc2)cc2c3ccccc3c[n+](C)c12.[Cl-] | 1 µg/mL | 2 µg/mL | 4 µg/mL | > 64 µg/mL | 16 µg/mL | 16 µg/mL | > 64 µg/mL | 8 µg/mL | 2 µg/mL | 4 µg/mL | 32 µg/mL
10 | C[n+]1cc2ccccc2c2cc(-c3ccc(OC(F)(F)F)cc3)ccc21.[Cl-] | 4 µg/mL | 8 µg/mL | 64 µg/mL | > 64 µg/mL | 32 µg/mL | 16 µg/mL | > 64 µg/mL | 64 µg/mL | 4 µg/mL | 2 µg/mL | 64 µg/mL
11 | COc1cc(-c2ccc(C(F)(F)F)cc2)cc2c3ccccc3c[n+](C)c12.[Cl-] | 2 µg/mL | 2 µg/mL | 4 µg/mL | > 64 µg/mL | 8 µg/mL | 8 µg/mL | > 64 µg/mL | 8 µg/mL | 0.5 µg/mL | 1 µg/mL | 32 µg/mL
12 | COc1cc(-c2ccc(-c3ccccc3)cc2)cc2c3ccccc3c[n+](C)c12.[Cl-] | 1 µg/mL | 2 µg/mL | 4 µg/mL | > 64 µg/mL | 16 µg/mL | 8 µg/mL | > 64 µg/mL | 4 µg/mL | 1 µg/mL | 2 µg/mL | 16 µg/mL
13 | C[n+]1cc2ccccc2c2cc(-c3cccc(C(F)(F)F)c3)ccc21.[Cl-] | 8 µg/mL | 16 µg/mL | 16 µg/mL | > 64 µg/mL | 8 µg/mL | 8 µg/mL | > 64 µg/mL | 16 µg/mL | 16 µg/mL | 16 µg/mL | > 64 µg/mL
14 | COc1cc(-c2cccc(C(F)(F)F)c2)cc2c3ccccc3c[n+](C)c12.[Cl-] | 2 µg/mL | 4 µg/mL | 8 µg/mL | > 64 µg/mL | 8 µg/mL | 4 µg/mL | > 64 µg/mL | 8 µg/mL | 4 µg/mL | 4 µg/mL | 32 µg/mL
15 | C[n+]1cc2ccccc2c2cc(-c3ccc(C(F)(F)F)cc3)ccc21.[Cl-] | 8 µg/mL | 8 µg/mL | 16 µg/mL | > 64 µg/mL | 16 µg/mL | > 64 µg/mL | > 64 µg/mL | 16 µg/mL | 2 µg/mL | 4 µg/mL | > 64 µg/mL
16 | COc1ccc(-c2cc(OC)c3c(c2)c2ccccc2c[n+]3C)cc1.[Cl-] | 16 µg/mL | 8 µg/mL | 32 µg/mL | > 64 µg/mL | 8 µg/mL | 16 µg/mL | > 64 µg/mL | 64 µg/mL | 4 µg/mL | 2 µg/mL | > 64 µg/mL
17 | COc1cc(-c2ccc(C)cc2)cc2c3ccccc3c[n+](C)c12.[Cl-] | 4 µg/mL | 2 µg/mL | 4 µg/mL | > 64 µg/mL | 8 µg/mL | 16 µg/mL | > 64 µg/mL | 16 µg/mL | 2 µg/mL | 0.5 µg/mL | 64 µg/mL
18 | COc1cc(/C=C/C(=O)CC(=O)/C=C/c2ccc(O)c(OC)c2)ccc1O [CURCUMIN] | 32 µg/mL (≈ 86.9 µM) | 32 µg/mL (≈ 86.9 µM) | 64 µg/mL (≈ 174 µM) | > 64 µg/mL |  | > 64 µg/mL | > 64 µg/mL | > 64 µg/mL | > 64 µg/mL | 32 µg/mL (≈ 86.9 µM) | 
